Eleven compounds from ChEMBL document CHEMBL5634162, “Cyclohexylalanine-Containing α-Helical Amphipathic Peptide Targets Cardiolipin, Rescuing Mitochondrial Dysfunction in Kidney Injury” (J Med Chem, 2024) can be followed below.

Where a SMILES comes first, the peptide text is derived from it. Bridges are numbered along the chain shown (N, C = ends). Roman numbers before positions name the chains, in order. [ ]: non-standard residue; d: D form. The star is where a group is joined. 5TAMRA = CN(C)c1ccc2c(c1)Oc1cc(N(C)C)ccc1C21OC(=O)c2cc(C(=O)*)ccc21; Cha = N[C@@H](CC1CCCCC1)C(=O)O

This series in a line: Drug localization in mitochondria of human HeLa cells at EC50 incubated for 3 hrs by fluorescence based assay. Format: ADME.
On to `CC(=O)N[C@@H](CC(C)C)C(=O)N[C@H]1CSSC[C@@H](C(=O)N[C@@H](CCCNC(=N)N)C(N)=O)NC(=O)[C@H](CC2CCCCC2)NC(=O)[C@H](CCCNC(=N)N)NC(=O)[C@H](CCCNC(=N)N)NC(=O)[C@H](CC(C)C)NC(=O)[C@H](CC2CCCCC2)NC(=O)[C@H](CCCNC(=N)N)NC(=O)[C@@H](NC(=O)[C@H](CC(C)C)NC(=O)c2ccc3c(c2)C(=O)OC32c3ccc(N(C)C)cc3Oc3cc(N(C)C)ccc32)CSSC[C@@H](C(=O)N[C@@H](CCCNC(=N)N)C(N)=O)NC(=O)[C@H](CC2CCCCC2)NC(=O)[C@H](CCCNC(=N)N)NC(=O)[C@H](CCCNC(=N)N)NC(=O)[C@H](CC(C)C)NC(=O)[C@H](CC2CCCCC2)NC(=O)[C@H](CCCNC(=N)N)NC1=O` (I: Ac-LCR[Cha]LRR[Cha]CR-NH2 / II: 5TAMRA-LCR[Cha]LRR[Cha]CR-NH2; disulfide I:2-II:9, I:9-II:2), for which the Drug uptake came to 53%.

Compound `CC(=O)N[C@@H](CC(C)C)C(=O)N[C@H]1CSSC[C@@H](C(=O)N[C@@H](CCCNC(=N)N)C(N)=O)NC(=O)[C@H](CC2CCCCC2)NC(=O)[C@H](CCCNC(=N)N)NC(=O)[C@H](CCCNC(=N)N)NC(=O)[C@H](CC2CCCCC2)NC(=O)[C@H](CC2CCCCC2)NC(=O)[C@H](CCCNC(=N)N)NC(=O)[C@@H](NC(=O)[C@H](CC(C)C)NC(=O)c2ccc3c(c2)C(=O)OC32c3ccc(N(C)C)cc3Oc3cc(N(C)C)ccc32)CSSC[C@@H](C(=O)N[C@@H](CCCNC(=N)N)C(N)=O)NC(=O)[C@H](CC2CCCCC2)NC(=O)[C@H](CCCNC(=N)N)NC(=O)[C@H](CCCNC(=N)N)NC(=O)[C@H](CC2CCCCC2)NC(=O)[C@H](CC2CCCCC2)NC(=O)[C@H](CCCNC(=N)N)NC1=O` (I: Ac-LCR[Cha][Cha]RR[Cha]CR-NH2 / II: 5TAMRA-LCR[Cha][Cha]RR[Cha]CR-NH2; disulfide I:2-II:9, I:9-II:2) showed a Drug uptake of 53%.

On to `CC(=O)N[C@@H](CC1CCCCC1)C(=O)N[C@H]1CSSC[C@@H](C(=O)N[C@@H](CCCNC(=N)N)C(N)=O)NC(=O)[C@H](CC(C)C)NC(=O)[C@H](CCCNC(=N)N)NC(=O)[C@H](CCCNC(=N)N)NC(=O)[C@H](CC(C)C)NC(=O)[C@H](CC2CCCCC2)NC(=O)[C@H](CCCNC(=N)N)NC(=O)[C@@H](NC(=O)[C@H](CC2CCCCC2)NC(=O)c2ccc3c(c2)C(=O)OC32c3ccc(N(C)C)cc3Oc3cc(N(C)C)ccc32)CSSC[C@@H](C(=O)N[C@@H](CCCNC(=N)N)C(N)=O)NC(=O)[C@H](CC(C)C)NC(=O)[C@H](CCCNC(=N)N)NC(=O)[C@H](CCCNC(=N)N)NC(=O)[C@H](CC(C)C)NC(=O)[C@H](CC2CCCCC2)NC(=O)[C@H](CCCNC(=N)N)NC1=O` (I: Ac-[Cha]CR[Cha]LRRLCR-NH2 / II: 5TAMRA-[Cha]CR[Cha]LRRLCR-NH2; disulfide I:2-II:9, I:9-II:2), for which the Drug uptake worked out at 53%.

Regarding `CC(=O)N[C@@H](CC(C)C)C(=O)N[C@H]1CSSC[C@@H](C(=O)N[C@@H](CCCNC(=N)N)C(N)=O)NC(=O)[C@H](CC2CCCCC2)NC(=O)[C@H](CCCNC(=N)N)NC(=O)[C@H](CCCNC(=N)N)NC(=O)[C@H](CC2CCCCC2)NC(=O)[C@H](CC(C)C)NC(=O)[C@H](CCCNC(=N)N)NC(=O)[C@@H](NC(=O)[C@H](CC(C)C)NC(=O)c2ccc3c(c2)C(=O)OC32c3ccc(N(C)C)cc3Oc3cc(N(C)C)ccc32)CSSC[C@@H](C(=O)N[C@@H](CCCNC(=N)N)C(N)=O)NC(=O)[C@H](CC2CCCCC2)NC(=O)[C@H](CCCNC(=N)N)NC(=O)[C@H](CCCNC(=N)N)NC(=O)[C@H](CC2CCCCC2)NC(=O)[C@H](CC(C)C)NC(=O)[C@H](CCCNC(=N)N)NC1=O` (I: Ac-LCRL[Cha]RR[Cha]CR-NH2 / II: 5TAMRA-LCRL[Cha]RR[Cha]CR-NH2; disulfide I:2-II:9, I:9-II:2), the Drug uptake is 53%.

The compound `CC(=O)N[C@@H](CC(C)C)C(=O)N[C@H]1CSSC[C@@H](C(=O)N[C@@H](CCCNC(=N)N)C(N)=O)NC(=O)[C@H](CC(C)C)NC(=O)[C@H](CCCNC(=N)N)NC(=O)[C@H](CCCNC(=N)N)NC(=O)[C@H](CC2CCCCC2)NC(=O)[C@H](CC(C)C)NC(=O)[C@H](CCCNC(=N)N)NC(=O)[C@@H](NC(=O)[C@H](CC(C)C)NC(=O)c2ccc3c(c2)C(=O)OC32c3ccc(N(C)C)cc3Oc3cc(N(C)C)ccc32)CSSC[C@@H](C(=O)N[C@@H](CCCNC(=N)N)C(N)=O)NC(=O)[C@H](CC(C)C)NC(=O)[C@H](CCCNC(=N)N)NC(=O)[C@H](CCCNC(=N)N)NC(=O)[C@H](CC2CCCCC2)NC(=O)[C@H](CC(C)C)NC(=O)[C@H](CCCNC(=N)N)NC1=O` (I: Ac-LCRL[Cha]RRLCR-NH2 / II: 5TAMRA-LCRL[Cha]RRLCR-NH2; disulfide I:2-II:9, I:9-II:2) displayed a Drug uptake of 53%.

`CC(=O)N[C@@H](CC(C)C)C(=O)N[C@H]1CSSC[C@@H](C(=O)N[C@@H](CCCNC(=N)N)C(N)=O)NC(=O)[C@H](CC(C)C)NC(=O)[C@H](CCCNC(=N)N)NC(=O)[C@H](CCCNC(=N)N)NC(=O)[C@H](CC(C)C)NC(=O)[C@H](CC2CCCCC2)NC(=O)[C@H](CCCNC(=N)N)NC(=O)[C@@H](NC(=O)[C@H](CC(C)C)NC(=O)c2ccc3c(c2)C(=O)OC32c3ccc(N(C)C)cc3Oc3cc(N(C)C)ccc32)CSSC[C@@H](C(=O)N[C@@H](CCCNC(=N)N)C(N)=O)NC(=O)[C@H](CC(C)C)NC(=O)[C@H](CCCNC(=N)N)NC(=O)[C@H](CCCNC(=N)N)NC(=O)[C@H](CC(C)C)NC(=O)[C@H](CC2CCCCC2)NC(=O)[C@H](CCCNC(=N)N)NC1=O` (I: Ac-LCR[Cha]LRRLCR-NH2 / II: 5TAMRA-LCR[Cha]LRRLCR-NH2; disulfide I:2-II:9, I:9-II:2) had a Drug uptake of 53%.

In the case of `CC(=O)N[C@@H](CC(C)C)C(=O)N[C@H]1CSSC[C@@H](C(=O)N[C@@H](CCCNC(=N)N)C(N)=O)NC(=O)[C@H](CC(C)C)NC(=O)[C@H](CCCNC(=N)N)NC(=O)[C@H](CCCNC(=N)N)NC(=O)[C@H](CC2CCCCC2)NC(=O)[C@H](CC2CCCCC2)NC(=O)[C@H](CCCNC(=N)N)NC(=O)[C@@H](NC(=O)[C@H](CC(C)C)NC(=O)c2ccc3c(c2)C(=O)OC32c3ccc(N(C)C)cc3Oc3cc(N(C)C)ccc32)CSSC[C@@H](C(=O)N[C@@H](CCCNC(=N)N)C(N)=O)NC(=O)[C@H](CC(C)C)NC(=O)[C@H](CCCNC(=N)N)NC(=O)[C@H](CCCNC(=N)N)NC(=O)[C@H](CC2CCCCC2)NC(=O)[C@H](CC2CCCCC2)NC(=O)[C@H](CCCNC(=N)N)NC1=O` (I: Ac-LCR[Cha][Cha]RRLCR-NH2 / II: 5TAMRA-LCR[Cha][Cha]RRLCR-NH2; disulfide I:2-II:9, I:9-II:2), the Drug uptake is given as 53%.

`CC(=O)N[C@@H](CC(C)C)C(=O)N[C@H]1CSSC[C@@H](C(=O)N[C@@H](CCCNC(=N)N)C(N)=O)NC(=O)[C@H](CC2CCCCC2)NC(=O)[C@H](CCCNC(=N)N)NC(=O)[C@H](CCCNC(=N)N)NC(=O)[C@H](CC(C)C)NC(=O)[C@H](CC(C)C)NC(=O)[C@H](CCCNC(=N)N)NC(=O)[C@@H](NC(=O)[C@H](CC(C)C)NC(=O)c2ccc3c(c2)C(=O)OC32c3ccc(N(C)C)cc3Oc3cc(N(C)C)ccc32)CSSC[C@@H](C(=O)N[C@@H](CCCNC(=N)N)C(N)=O)NC(=O)[C@H](CC2CCCCC2)NC(=O)[C@H](CCCNC(=N)N)NC(=O)[C@H](CCCNC(=N)N)NC(=O)[C@H](CC(C)C)NC(=O)[C@H](CC(C)C)NC(=O)[C@H](CCCNC(=N)N)NC1=O` (I: Ac-LCRLLRR[Cha]CR-NH2 / II: 5TAMRA-LCRLLRR[Cha]CR-NH2; disulfide I:2-II:9, I:9-II:2) displayed a Drug uptake of 53%.

With `CC(=O)N[C@@H](CC1CCCCC1)C(=O)N[C@H]1CSSC[C@@H](C(=O)N[C@@H](CCCNC(=N)N)C(N)=O)NC(=O)[C@H](CC2CCCCC2)NC(=O)[C@H](CCCNC(=N)N)NC(=O)[C@H](CCCNC(=N)N)NC(=O)[C@H](CC(C)C)NC(=O)[C@H](CC(C)C)NC(=O)[C@H](CCCNC(=N)N)NC(=O)[C@@H](NC(=O)[C@H](CC2CCCCC2)NC(=O)c2ccc3c(c2)C(=O)OC32c3ccc(N(C)C)cc3Oc3cc(N(C)C)ccc32)CSSC[C@@H](C(=O)N[C@@H](CCCNC(=N)N)C(N)=O)NC(=O)[C@H](CC2CCCCC2)NC(=O)[C@H](CCCNC(=N)N)NC(=O)[C@H](CCCNC(=N)N)NC(=O)[C@H](CC(C)C)NC(=O)[C@H](CC(C)C)NC(=O)[C@H](CCCNC(=N)N)NC1=O` (I: Ac-[Cha]CRLLRR[Cha]CR-NH2 / II: 5TAMRA-[Cha]CRLLRR[Cha]CR-NH2; disulfide I:2-II:9, I:9-II:2), the Drug uptake stood at 53%.

On to `CC(=O)N[C@@H](CC1CCCCC1)C(=O)N[C@H]1CSSC[C@@H](C(=O)N[C@@H](CCCNC(=N)N)C(N)=O)NC(=O)[C@H](CC(C)C)NC(=O)[C@H](CCCNC(=N)N)NC(=O)[C@H](CCCNC(=N)N)NC(=O)[C@H](CC2CCCCC2)NC(=O)[C@H](CC(C)C)NC(=O)[C@H](CCCNC(=N)N)NC(=O)[C@@H](NC(=O)[C@H](CC2CCCCC2)NC(=O)c2ccc3c(c2)C(=O)OC32c3ccc(N(C)C)cc3Oc3cc(N(C)C)ccc32)CSSC[C@@H](C(=O)N[C@@H](CCCNC(=N)N)C(N)=O)NC(=O)[C@H](CC(C)C)NC(=O)[C@H](CCCNC(=N)N)NC(=O)[C@H](CCCNC(=N)N)NC(=O)[C@H](CC2CCCCC2)NC(=O)[C@H](CC(C)C)NC(=O)[C@H](CCCNC(=N)N)NC1=O` (I: Ac-[Cha]CRL[Cha]RRLCR-NH2 / II: 5TAMRA-[Cha]CRL[Cha]RRLCR-NH2; disulfide I:2-II:9, I:9-II:2), for which the Drug uptake is on record as 53%.

`CC(=O)N[C@@H](CC1CCCCC1)C(=O)N[C@H]1CSSC[C@@H](C(=O)N[C@@H](CCCNC(=N)N)C(N)=O)NC(=O)[C@H](CC(C)C)NC(=O)[C@H](CCCNC(=N)N)NC(=O)[C@H](CCCNC(=N)N)NC(=O)[C@H](CC(C)C)NC(=O)[C@H](CC(C)C)NC(=O)[C@H](CCCNC(=N)N)NC(=O)[C@@H](NC(=O)[C@H](CC2CCCCC2)NC(=O)c2ccc3c(c2)C(=O)OC32c3ccc(N(C)C)cc3Oc3cc(N(C)C)ccc32)CSSC[C@@H](C(=O)N[C@@H](CCCNC(=N)N)C(N)=O)NC(=O)[C@H](CC(C)C)NC(=O)[C@H](CCCNC(=N)N)NC(=O)[C@H](CCCNC(=N)N)NC(=O)[C@H](CC(C)C)NC(=O)[C@H](CC(C)C)NC(=O)[C@H](CCCNC(=N)N)NC1=O` (I: Ac-[Cha]CRLLRRLCR-NH2 / II: 5TAMRA-[Cha]CRLLRRLCR-NH2; disulfide I:2-II:9, I:9-II:2) displayed a Drug uptake of 53%.
